Experiment [1] addresses T1, S1P1 (Homo sapiens, UniProt P21453). The experiment in a line: S1P1 Binding Assay (33P-S1P ligand competition, membranes from CHO cells). As to conditions: membranes of CHO cells expressing human S1P1; 0.03 nM 33P-S1P; 60 min room temperature. Details: expressed in transfected cells; host or cells: CHO cells. As to the method:
Membranes were prepared from CHO cells expressing human S1P1. Cells were dissociated in buffer containing 20 mM HEPES, pH 7.5, 50 mM NaCl, 2 mM EDTA and Protease Inhibitor cocktail (Roche), and disrupted on ice using the Polytron homogenizer. The homogenate was centrifuged at 20,000 rpm (48,000 g) and the supernatant was discarded. The membrane pellets were resuspended in buffer containing 50 mM HEPES, pH 7.5, 100 mM NaCl, 1 mM MgCl2, 2 mM EDTA and stored in aliquots at −80° C. after protein concentration determination.
Membranes (2 μg/well) and 0.03 nM final concentration of ^33P-S1P ligand (1 mCi/ml, American Radiolabeled Chemicals) were added to the compound plates. Binding was performed for 60 min at room temperature, terminated by collecting the membranes onto GF/B filter plates, and radioactivity was measured by TOPCOUNT®. The competition data of the test compounds over a range of concentrations was plotted as percentage inhibition of radioligand specific binding. The IC50 is defined as the concentration of competing ligand needed to reduce specific binding by 50%.
Compounds of the present invention and Comparative Compound A were tested in the S1P1 binding assay described hereinabove and the results rounded to two digits, shown in Table A were obtained. In some instances, the value is an average of multiple experiments where N is the number of experiments conducted that provided satisfactory dose response curves. When more than one batch of an example was tested, the value presented is from the batch which allowed a comparison of GTPγS S1P1 and GTPγS S1P3 in Method A (Data shown in Table B). Data was not averaged across different batches of an example compound.

Experiment [2] has as its target T1, S1P1. As to the kind of experiment: Method B: Receptor [35S] GTPγS SPA Binding Assay, membranes from S1P1 transfected CHO cells. The note with it: for EC50: Method B SPA, S1P1 transfected CHO cell membranes, NC = a satisfactory dose response curve was not obtained; for GTPγS S1P3/S1P1 (Method B): ratio of GTPγS S1P3 EC50 to GTPγS S1P1 EC50, Method B. The format is biochemical. Details: expressed in transfected cells; host or cells: S1P1/CHO cells. As to the method:
(§1) Membranes prepared from S1P1 or S1P3 transfected CHO cells (2 μg protein) were incubated in 96-well white plates (CORNING® 3693) with test compounds diluted in DMSO, in 50 μl of reaction mixture containing 7.5 μl WGA-PVT beads (20 mg/ml), and 5 μM GDP, 20 mM HEPES pH 7.4, 100 mM NaCl, 1 mM EDTA, 5 mM MgCl2, 10 μg/ml saponin, 0.1% BSA, and 1 μM leupeptin. The assay was initiated with the addition of 25 μl of 0.2 nM [^35S]-GTPγS (1250 Ci/mmol; NEN) in assay buffer. After 90 min incubation at room temperature, spin the plate at 1000 rpm for 5 min. The bound radionuclides were measured at TOPCOUNT®, expressed as % response relative to S1P (1 μM) activation. Data was analyzed using the four parameter logistic equation in Excel. The four parameters in the equation, Y=A+((B−A)/(1+((EC50/X)^D))), are described as following: A is the Y value (agonist activity) at the bottom plateau; B is the Y value at the top plateau; EC50 is the X value (agonist concentration) when the response is halfway between bottom and top; D is Hill coefficient. Curves were not generated for compounds having Ymax values were below 50%.
(§2) Compounds of the present invention and Comparative Compound A were tested in the Receptor [^35S] GTPγS Binding Assays (Method A) and Receptor [35S] In some instances, the value is an average of multiple experiments where N is the number of experiments conducted that provided satisfactory dose response curves. When more than one batch of an example was tested, the value presented is from a batch which allowed a comparison of GTPγS S1P1 and GTPγS S1P3 in which the most number of experiments were performed. Preferably, the same batch was examined in Method A and Method B. Data was not averaged across different batches of an example compound.
A general note: GTPγS is a poorly hydrolysed GTP analogue; its binding reports G protein activation.

Experiment [3] addresses T2, S1P3 (Homo sapiens, UniProt Q99500). As to the kind of experiment: Method A: Receptor [35S] GTPγS Binding Assay, membranes from EDG3-Ga15-bla HEK293T cells. The format is biochemical. Details: expressed in transfected cells; host or cells: EDG3-Ga15-bla HEK293T cells. The note with it: EDG3-Ga15-bla HEK293T cell membranes. On the procedure:
(§3) Compounds were loaded in a 384 Falcon v-bottom plate (0.5 μl/well in a 3-fold dilution). Membranes prepared from S1P1/CHO cells or EDG3-Ga15-bla HEK293T cells were added to the compound plate (40 μl/well, final protein […]) with MULTIDROP®. [^35S]GTP (1250 Ci/mmol, Perkin Elmer) was diluted in assay buffer: 20 mM HEPES, pH7.5, 10 mM MgCl2, 150 mM NaCl, 1 mM EGTA, 1 mM DTT, 10 μM GDP, 0.1% fatty acid free BSA, and 10 mg/ml Saponin to 0.4 nM. 40 μl of the [^35S] GTP solution was added to the compound plate with a final concentration of 0.2 nM. The reaction was kept at room temperature for 45 min. At the end of incubation, all the mixtures in the compound plate were transferred to a 384 well FB filter plates via GPCR robot system. The filter plate was washed with water 4 times by using the modified manifold Embla plate washer and dried at 60° C. for 45 min. 30 μl of MicroScint 20 scintillation fluid was added to each well for counting at Packard TOPCOUNT®. EC50 is defined as the agonist concentration that corresponds to 50% of the Ymax (maximal response) obtained for each individual compound tested.
as §2
Target sequence in this assay (Q99500 whole entry): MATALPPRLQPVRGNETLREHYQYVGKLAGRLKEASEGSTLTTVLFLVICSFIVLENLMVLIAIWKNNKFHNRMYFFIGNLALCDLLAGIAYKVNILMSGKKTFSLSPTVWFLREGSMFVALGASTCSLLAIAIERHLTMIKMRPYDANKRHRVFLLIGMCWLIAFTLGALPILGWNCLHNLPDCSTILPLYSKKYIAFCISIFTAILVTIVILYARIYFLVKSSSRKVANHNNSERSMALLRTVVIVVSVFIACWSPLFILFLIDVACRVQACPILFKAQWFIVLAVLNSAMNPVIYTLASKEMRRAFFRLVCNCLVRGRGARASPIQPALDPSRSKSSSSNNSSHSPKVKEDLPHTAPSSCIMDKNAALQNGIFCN

Experiment [4] concerns the target T2, S1P3. As to the kind of experiment: Method B: Receptor [35S] GTPγS SPA Binding Assay, membranes from S1P3 transfected CHO cells. As to conditions: S1P3 transfected CHO cell membranes, NC = a satisfactory dose response curve was not obtained. The format is biochemical. Details: expressed in transfected cells; host or cells: CHO cells. As to the method:
as §1, §2
Target sequence in this assay (Q99500 whole entry, species assumed): as the sequence (Q99500 whole entry) above

In experiment [5] the target is T1, S1P1. As to the kind of experiment: Method A: Receptor [35S] GTPγS Binding Assay, membranes from S1P1/CHO cells. Details: expressed in transfected cells; host or cells: S1P1/CHO cells. The note with it: for EC50: Method A, S1P1/CHO cell membranes; for GTPγS S1P3/S1P1 (Method A): ratio of GTPγS S1P3 EC50 to GTPγS S1P1 EC50, Method A. Type of experiment: biochemical. On the procedure: as §3, §2

Counter-ions that a name gives are not always drawn.

T1 sequence (P21453 whole entry): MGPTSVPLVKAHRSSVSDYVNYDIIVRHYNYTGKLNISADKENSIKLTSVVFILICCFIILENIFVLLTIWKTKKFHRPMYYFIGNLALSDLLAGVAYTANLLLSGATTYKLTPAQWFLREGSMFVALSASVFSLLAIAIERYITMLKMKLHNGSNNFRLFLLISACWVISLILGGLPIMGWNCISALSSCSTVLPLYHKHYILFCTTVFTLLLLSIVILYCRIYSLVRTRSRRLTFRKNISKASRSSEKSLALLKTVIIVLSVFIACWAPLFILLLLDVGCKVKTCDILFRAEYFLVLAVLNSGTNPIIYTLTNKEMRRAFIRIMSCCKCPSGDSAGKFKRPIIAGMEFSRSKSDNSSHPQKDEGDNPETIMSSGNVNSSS

As usually defined, the IC50 is the concentration at which inhibition is half-maximal. The low end stands for inhibition by little substance, the high end for a need for much substance. As a reminder, the EC50 is the concentration giving half of the maximal effect. Read a high EC50 as a less potent agent. In experiment [1], `CC(C)(C)c1c(-c2nc(-c3ccc(CN4CC(C(=O)O)C4)cc3)no2)noc1-c1ccccc1` [Example 7, 1-(4-(5-(4-tert-Butyl-5-phenylisoxazol-3-yl)-1,2,4-oxadiazol-3-yl)benzyl)-azetidine-3-carboxylic acid, 2-2-2-trifluoroacetic acid salt] came in with a half-maximal inhibitory concentration (IC50) of 0.58 nM. For the same molecule, the 50% effective concentration (EC50) stood at 1.5 nM in experiment [2], 3700 nM in experiment [3], 8100 nM in experiment [4] and 6.6 nM in experiment [5]. The “GTPγS S1P3/S1P1 (Method B)” value in experiment [2] was 5,400. The “GTPγS S1P3/S1P1 (Method A)” value in experiment [5] was 560.
In experiment [1], `O=C(O)C1CN(Cc2ccc(-c3noc(-c4cc(-c5ccccc5)c(C(F)(F)F)s4)n3)cc2)C1` [Comp. A, 1-(4-(5-(4-Phenyl-5-(trifluoromethyl)thiophen-2-yl)-1,2,4-oxadiazol-3-yl)benzyl)azetidine-3-carboxylic acid, reference compound] showed an IC50 of 2.5 nM. The EC50 in experiment [2] was 0.25 nM; in experiment [3], 97 nM; in experiment [4], 20 nM; in experiment [5], 84 nM. Besides, the “GTPγS S1P3/S1P1 (Method B)” value in experiment [2] amounted to 78. In experiment [5], the “GTPγS S1P3/S1P1 (Method A)” value came out at 1.2.
On to `CCCc1onc(-c2nc(-c3ccc(CN4CC(C(=O)O)C4)cc3)no2)c1CC(C)C` [Example 19, 1-(4-(5-(4-Isobutyl-5-propylisoxazol-3-yl)-1,2,4-oxadiazol-3-yl)benzyl)azetidine-3-carboxylic acid, TFA], for which, in experiment [1], the IC50 amounted to 0.3 nM. Besides, the EC50 turned out to be 0.72 nM in experiment [2], 810 nM in experiment [3] and 3 nM in experiment [5]. Moreover, in experiment [5], the “GTPγS S1P3/S1P1 (Method A)” value turned out to be 270.
For `CC(C)Cc1c(-c2nc(-c3ccc(CN4CC(C(=O)O)C4)cc3)no2)noc1-c1ccccc1` [Example 4, 1-(4-(5-(4-Isobutyl-5-phenylisoxazol-3-yl)-1,2,4-oxadiazol-3-yl)benzyl)-azetidine-3-carboxylic acid] the same measures were 0.17 nM, 0.58 nM, 470 nM, 0.7 nM and 670.
Consider `CCCCc1c(-c2nc(-c3ccc(CN4CC(C(=O)O)C4)cc3)no2)noc1-c1ccccc1` [Example 3, 1-(4-(5-(4-Butyl-5-phenylisoxazol-3-yl)-1,2,4-oxadiazol-3-yl)benzyl)-azetidine-3-carboxylic acid], for which, in experiment [1], the IC50 was determined as 0.065 nM. Moreover, the EC50 in experiment [2] amounted to 0.16 nM; in experiment [3], 330 nM; in experiment [5], 0.26 nM. Also, the “GTPγS S1P3/S1P1 (Method A)” value in experiment [5] is reported as 1,300.
`CCCc1c(-c2ccccc2)noc1-c1nc(-c2ccc(CN3CC(C(=O)O)C3)cc2)no1` [Example 11, 1-(4-(5-(3-Phenyl-4-propylisoxazol-5-yl)-1,2,4-oxadiazol-3-yl)benzyl)azetidine-3-carboxylic acid, 2,2,2-trifluoroacetic acid salt] gave a half-maximal inhibitory concentration (IC50) in experiment [1] of 0.13 nM. Besides, the results for the half-maximal effective concentration (EC50) in experiment [2], in experiment [4] and in experiment [5] were 0.017 nM, 50 nM and 0.47 nM, respectively. Also, in experiment [2], the “GTPγS S1P3/S1P1 (Method B)” value is given as 2,900.
`O=C(O)C1CN(Cc2ccc(-c3noc(-c4onc(-c5ccccc5)c4C(F)F)n3)cc2)C1` [Example 12, 1-(4-(5-(4-(Difluoromethyl)-3-phenylisoxazol-5-yl)-1,2,4-oxadiazol-3-yl)benzyl)azetidine-3-carboxylic acid, 2,2,2-trifluoroacetic acid salt] showed an IC50 in experiment [1] of 0.078 nM. Besides, the EC50 is 0.15 nM in experiment [2], 3600 nM in experiment [3] and 1600 nM in experiment [4]. Moreover, the “GTPγS S1P3/S1P1 (Method B)” value in experiment [2] is 11,000.
With `CCCc1c(-c2nc(-c3ccc(CN4CC(C(=O)O)C4)cc3)no2)noc1CC(C)C` [Example 18, 1-(4-(5-(5-Isobutyl-4-propylisoxazol-3-yl)-1,2,4-oxadiazol-3-yl)benzyl)azetidine-3-carboxylic acid, TFA], the IC50 in experiment [1] came out at 0.14 nM. Also, the EC50 in experiment [2] came out at 0.015 nM; in experiment [4], 21 nM; in experiment [5], 1 nM. Moreover, the “GTPγS S1P3/S1P1 (Method B)” value in experiment [2] was 1,400.
Take `CNC(=O)c1c(-c2ccccc2)noc1-c1nc(-c2ccc(CN3CC(C(=O)O)C3)cc2)no1` [Example 14, 1-(4-(5-(4-(Methylcarbamoyl)-3-phenylisoxazol-5-yl)-1,2,4-oxadiazol-3-yl)benzyl)azetidine-3-carboxylic acid, 2,2,2-trifluoroacetic acid salt]: the half-maximal inhibitory concentration (IC50) in experiment [1] turned out to be 0.7 nM. Further, the values for the EC50 in experiment [2], in experiment [3] and in experiment [5] were 1.2 nM, 5200 nM and 150 nM, respectively. In experiment [5], the “GTPγS S1P3/S1P1 (Method A)” value was found to be 35.
`CC(F)(F)c1c(-c2nc(-c3ccc(CN4CC(C(=O)O)C4)cc3)no2)noc1-c1ccccc1` [Example 9, 1-(4-(5-(4-(1,1-Difluoroethyl)-5-phenylisoxazol-3-yl)-1,2,4-oxadiazol-3-yl)benzyl)azetidine-3-carboxylic acid, 2,2,2-trifluoroacetic acid salt] had an IC50 in experiment [1] of 0.14 nM. The concentration for a half-maximal effect (EC50) in experiment [2] was determined as 0.14 nM; in experiment [3], 2500 nM; in experiment [4], 910 nM; in experiment [5] it was 3.1 nM. For the same molecule, the “GTPγS S1P3/S1P1 (Method B)” value in experiment [2] is reported as 6,500. Besides, the “GTPγS S1P3/S1P1 (Method A)” value in experiment [5] stood at 810.
Take `O=C(O)C1CN(Cc2ccc(-c3noc(-c4noc(-c5ccccc5)c4-c4ccccc4)n3)cc2)C1` [Example 17, 1-(4-(5-(4,5-diphenylisoxazol-3-yl)-1,2,4-oxadiazol-3-yl)benzyl)azetidine-3-carboxylic acid, 2,2,2-trifluoroacetic acid salt]: in experiment [1], the half-inhibitory concentration (IC50) was 0.063 nM. Also, the EC50 in experiment [2] came to 0.12 nM; in experiment [3], 20 nM; in experiment [4] it was 13.5 nM; in experiment [5] it was 0.73 nM. In experiment [2], the “GTPγS S1P3/S1P1 (Method B)” value was found to be 112. The “GTPγS S1P3/S1P1 (Method A)” value in experiment [5] turned out to be 27.

(Values after US8354398B2, “Substituted isoxazole compounds” (Bristol-Myers Squibb Company, priority 2009, dated 2013).)
